Measurements published in US10392391B2 (Vertex Pharmaceuticals Incorporated, priority 2012, dated 2019).
pKi: −log10 of the molar value.

Experiments:
[1] = target: ATR kinase (full-length ATR) (Homo sapiens (Human), UniProt Q13535); assay: ATR inhibition assay (radioactive-phosphate incorporation); format: biochemical; conditions: Ki(app), 5 nM full-length ATR, 10 μM ATP, 25° C.
Method in brief: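 Ki(app) was fitted by non-linear regression to background-corrected initial rates. Full-length ATR (5 nM) phosphorylated 800 μM peptide using 10 μM [γ-33P]ATP at 25° C in Tris/HCl pH 7.5 buffer with MgCl2, DTT and 7% DMSO. After 10-minute compound pre-incubation and 24-hour reaction, phosphocellulose filters were scintillation counted.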

[2] = target: ATR kinase, in the presence of partner proteins ATRIP, CLK2 and TopBP1 (Homo sapiens (Human), UniProt Q13535); assay: ATR-complex inhibition assay (radioactive-phosphate incorporation); format: biochemical; conditions: Ki(app); 4 nM full-length ATR, 40 nM ATRIP, 40 nM CLK2, 600 nM TopBP1; 10 μM ATP; 25° C.
Method: Compounds were screened for their ability to inhibit ATR kinase, in the presence of partner proteins ATRIP, CLK2 and TopBP1, using a radioactive-phosphate incorporation assay. Assays were carried out in a mixture of 50 mM Tris/HCl (pH 7.5), 10 mM MgCl2 and 1 mM DTT. Final substrate concentrations were 10 μM [g-33P]ATP (3.5 μCi 33P ATP/nmol ATP, Perkin Elmer, Massachusetts, USA) and 800 μM target peptide ([…]) (SEQ ID NO: 1); Isca Biochemicals, Cambridgeshire, UK).
Assays were carried out at 25° C. in the presence of 4 nM full-length ATR, 40 nM full-length ATRIP, 40 nM full-length CLK2 and 600 nM TopBP1 (A891-S1105). An enzyme stock buffer solution was prepared containing all of the reagents listed above, with the exception of target peptide, ATP and the test compound of interest. This enzyme stock was pre-incubated for 30 minutes at 25° C. 8.5 μL of the enzyme stock solution was placed in a 96-well plate followed by addition of 5 μl of target peptide and 2 μL of DMSO stock containing serial dilutions of the test compound (typically starting from a final concentration of 1.5 μM with 2.5-fold serial dilutions) in duplicate (final DMSO concentration 7%). The plate was pre-incubated for 10 minutes at 25° C. and the reaction initiated by addition of 15 μL [g-33P]ATP (final concentration 10 μM).
The reaction was stopped after […] by the addition of 30 μL 0.3 M phosphoric acid containing 2 mM ATP. A phosphocellulose filter 96-well plate (Multiscreen HTS MAPHNOB50, Merck-Millipore, Massachusetts, USA) was pretreated with 100 μL 0.1 M phosphoric acid prior to the addition of 45 μL of the stopped assay mixture. The plate was washed with 5×200 μL 0.1 M phosphoric acid. After drying, 50 μL Optiphase ‘SuperMix’ liquid scintillation cocktail (Perkin Elmer, Massachusetts, USA) was added to the well prior to scintillation counting (Wallac 1450 Microbeta Liquid Scintillation Counter, Perkin Elmer, Massachusetts, USA).
After removing mean background values for all of the data points, Ki(app) data were calculated from non-linear regression analysis of the initial rate data using the Prism software package (GraphPad Prism version 6.0c for Macintosh, GraphPad Software Inc., San Diego, USA).
Compounds with a Cisplatin sensitization value of <0.02 μM are marked with “+++.” Compounds with a Ki value >0.02 μM but <0.2 μM are marked with “++.” Compounds with a Ki value >0.2 μM but <5 μM are marked with “+.”

[3] = test system: HCT116 colorectal cancer cells; assay: Cisplatin sensitization assay, 96 h cell viability (MTS); format: cell-based; conditions: 96 h MTS, concentration of compound required to reduce the IC50 of Cisplatin
Method: Compounds can be screened for their ability to sensitize HCT116 colorectal cancer cells to Cisplatin using a 96 h cell viability (MTS) assay. […] Compounds and Cisplatin are then both added simultaneously to the cell media in 2-fold serial dilutions from a top final concentration of 10 μM as a full matrix of concentrations in a final cell volume of 200 μl, and the cells are then incubated at 37° C. in 5% CO2. After 96 h, 40 μl of MTS reagent (Promega G358a) is added to each well and the cells are incubated for 1 h at 37° C. in 5% CO2.
Compounds with a Cisplatin sensitization value of <0.02 μM are marked with “+++.” Compounds with a Cisplatin sensitization value >0.02 μM but <0.2 μM are marked with “++.” Compounds with a Cisplatin sensitization value >0.2 μM but <5 μM are marked with “+.”

Chain of ATR kinase, in the presence of partner proteins ATRIP, CLK2 and TopBP1 (Q13535 whole entry): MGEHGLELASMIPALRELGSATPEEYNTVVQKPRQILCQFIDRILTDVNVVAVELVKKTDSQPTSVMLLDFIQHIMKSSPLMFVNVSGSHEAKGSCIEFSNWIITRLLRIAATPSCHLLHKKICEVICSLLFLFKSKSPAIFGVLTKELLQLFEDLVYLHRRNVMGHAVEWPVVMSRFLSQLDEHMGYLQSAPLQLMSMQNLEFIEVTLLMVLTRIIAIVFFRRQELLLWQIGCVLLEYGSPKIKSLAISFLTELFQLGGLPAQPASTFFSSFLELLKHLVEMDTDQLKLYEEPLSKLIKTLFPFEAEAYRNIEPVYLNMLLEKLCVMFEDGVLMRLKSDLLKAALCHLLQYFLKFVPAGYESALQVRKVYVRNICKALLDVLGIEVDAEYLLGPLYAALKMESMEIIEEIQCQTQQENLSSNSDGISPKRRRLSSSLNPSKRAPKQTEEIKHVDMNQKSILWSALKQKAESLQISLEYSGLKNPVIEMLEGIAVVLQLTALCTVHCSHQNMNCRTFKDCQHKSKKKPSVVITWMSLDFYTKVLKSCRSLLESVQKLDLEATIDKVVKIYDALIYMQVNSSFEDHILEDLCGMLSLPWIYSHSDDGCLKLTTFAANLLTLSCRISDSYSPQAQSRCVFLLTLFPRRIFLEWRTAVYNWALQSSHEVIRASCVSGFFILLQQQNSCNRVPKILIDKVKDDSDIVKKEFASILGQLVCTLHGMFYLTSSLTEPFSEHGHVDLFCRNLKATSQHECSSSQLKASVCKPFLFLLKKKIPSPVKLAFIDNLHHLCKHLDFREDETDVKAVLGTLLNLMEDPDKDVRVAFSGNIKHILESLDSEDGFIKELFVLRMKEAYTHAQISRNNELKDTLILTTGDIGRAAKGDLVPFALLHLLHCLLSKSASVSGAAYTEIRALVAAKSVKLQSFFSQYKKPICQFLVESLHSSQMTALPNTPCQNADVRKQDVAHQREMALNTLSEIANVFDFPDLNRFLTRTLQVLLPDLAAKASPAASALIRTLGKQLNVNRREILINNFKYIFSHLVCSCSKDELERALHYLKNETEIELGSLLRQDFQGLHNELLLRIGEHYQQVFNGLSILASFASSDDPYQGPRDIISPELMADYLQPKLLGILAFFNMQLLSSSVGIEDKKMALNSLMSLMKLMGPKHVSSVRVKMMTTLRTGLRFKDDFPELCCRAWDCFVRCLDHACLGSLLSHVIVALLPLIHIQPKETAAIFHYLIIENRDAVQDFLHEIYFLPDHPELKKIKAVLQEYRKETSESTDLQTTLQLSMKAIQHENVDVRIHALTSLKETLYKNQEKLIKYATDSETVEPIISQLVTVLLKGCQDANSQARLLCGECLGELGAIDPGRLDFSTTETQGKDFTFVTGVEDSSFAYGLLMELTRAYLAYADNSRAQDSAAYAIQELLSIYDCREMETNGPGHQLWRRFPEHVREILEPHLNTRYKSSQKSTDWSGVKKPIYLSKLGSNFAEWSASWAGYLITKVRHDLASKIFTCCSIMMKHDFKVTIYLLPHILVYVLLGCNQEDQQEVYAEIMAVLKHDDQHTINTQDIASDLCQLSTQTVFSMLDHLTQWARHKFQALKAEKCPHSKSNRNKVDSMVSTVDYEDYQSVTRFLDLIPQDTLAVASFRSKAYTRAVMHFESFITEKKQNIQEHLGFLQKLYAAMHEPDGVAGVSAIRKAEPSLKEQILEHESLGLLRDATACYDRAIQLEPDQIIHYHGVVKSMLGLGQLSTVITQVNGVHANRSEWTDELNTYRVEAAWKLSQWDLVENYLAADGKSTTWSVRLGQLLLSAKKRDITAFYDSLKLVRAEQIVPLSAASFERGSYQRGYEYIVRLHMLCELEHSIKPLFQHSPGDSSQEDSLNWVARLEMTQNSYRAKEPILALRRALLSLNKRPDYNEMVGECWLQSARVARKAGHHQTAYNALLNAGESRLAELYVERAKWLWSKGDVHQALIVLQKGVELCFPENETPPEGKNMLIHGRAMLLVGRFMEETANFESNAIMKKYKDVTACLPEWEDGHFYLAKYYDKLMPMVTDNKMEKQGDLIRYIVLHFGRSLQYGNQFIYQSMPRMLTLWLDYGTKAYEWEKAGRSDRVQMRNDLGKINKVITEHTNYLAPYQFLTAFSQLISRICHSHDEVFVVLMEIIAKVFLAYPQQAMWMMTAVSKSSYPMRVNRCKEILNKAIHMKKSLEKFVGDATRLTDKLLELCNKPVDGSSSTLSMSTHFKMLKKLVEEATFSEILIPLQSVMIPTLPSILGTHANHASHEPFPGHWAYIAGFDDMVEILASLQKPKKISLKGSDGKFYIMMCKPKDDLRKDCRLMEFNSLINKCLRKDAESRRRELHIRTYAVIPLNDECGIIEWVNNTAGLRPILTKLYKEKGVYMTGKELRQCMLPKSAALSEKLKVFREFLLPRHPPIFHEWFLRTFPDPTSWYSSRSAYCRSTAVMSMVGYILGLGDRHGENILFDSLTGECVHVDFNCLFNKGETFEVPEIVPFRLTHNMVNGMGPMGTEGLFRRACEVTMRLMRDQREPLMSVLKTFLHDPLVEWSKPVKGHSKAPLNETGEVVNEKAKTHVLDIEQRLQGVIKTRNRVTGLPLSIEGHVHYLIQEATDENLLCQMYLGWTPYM
Chain of ATR kinase, in the presence of partner proteins ATRIP, CLK2 and TopBP1 (Q8WXE1 whole entry partner): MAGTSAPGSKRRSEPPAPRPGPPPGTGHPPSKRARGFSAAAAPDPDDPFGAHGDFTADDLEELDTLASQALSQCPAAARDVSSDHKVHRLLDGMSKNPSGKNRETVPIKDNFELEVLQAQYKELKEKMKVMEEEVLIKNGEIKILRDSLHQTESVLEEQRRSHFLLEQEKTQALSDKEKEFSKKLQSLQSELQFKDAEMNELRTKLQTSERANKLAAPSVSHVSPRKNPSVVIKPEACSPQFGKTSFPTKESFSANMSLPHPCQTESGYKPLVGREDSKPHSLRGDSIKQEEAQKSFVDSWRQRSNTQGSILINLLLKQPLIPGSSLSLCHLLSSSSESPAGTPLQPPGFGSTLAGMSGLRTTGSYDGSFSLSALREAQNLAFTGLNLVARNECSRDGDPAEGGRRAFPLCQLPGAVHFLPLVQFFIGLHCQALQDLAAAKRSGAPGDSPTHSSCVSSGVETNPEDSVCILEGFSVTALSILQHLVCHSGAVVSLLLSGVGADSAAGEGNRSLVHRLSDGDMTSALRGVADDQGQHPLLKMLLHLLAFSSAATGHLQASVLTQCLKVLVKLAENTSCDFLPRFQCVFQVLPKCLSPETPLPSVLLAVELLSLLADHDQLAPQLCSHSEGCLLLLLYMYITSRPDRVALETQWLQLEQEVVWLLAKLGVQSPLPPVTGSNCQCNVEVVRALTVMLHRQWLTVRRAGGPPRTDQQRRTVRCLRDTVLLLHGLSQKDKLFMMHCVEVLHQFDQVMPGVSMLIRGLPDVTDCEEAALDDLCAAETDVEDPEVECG
Chain of ATR kinase (full-length ATR) (Q13535 whole entry): as the sequence (Q13535 whole entry) above

| Structure (SMILES) | pKi [1] | pKi [2] | Cisplatin Sensitization Assay [3] |
| --- | --- | --- | --- |
| CC(=O)N1CCN(c2c(F)cncc2NC(=O)c2c(N)nn3cc(F)cnc23)CC1 [I-N-275, N-(4-(4-acetylpiperazin-1-yl)-5-fluoropyridin-3-yl)-2-amino-6-fluoropyrazolo[1,5-a]pyrimidine-3-carboxamide] | 6.00 to 8.00 | > 7.70 | – |
| Cc1nnccc1-c1ccncc1NC(=O)c1c(N)nn2cc(F)cnc12 [I-C-31, 2-amino-6-fluoro-N-(4-(3-methylpyridazin-4-yl)pyridin-3-yl)pyrazolo[1,5-a]pyrimidine-3-carboxamide] | 6.00 to 8.00 | > 7.70 | – |
| CNCCCN(C)C(=O)C1CCN(c2c(F)cncc2NC(=O)c2c(N)nn3cc(F)cnc23)CC1 [I-G-17] | 5.30 to 6.00 | – | + (Compounds with a Cisplatin sensitization value >0.2 μM but <5 μM are marked with “+.”) |
| COC1CN(C(=O)C2CCN(c3c(F)cncc3NC(=O)c3c(N)nn4cc(F)cnc34)CC2)C1 [I-G-21, 2-amino-6-fluoro-N-(5-fluoro-4-(4-(3-methoxyazetidine-1-carbonyl)piperidin-1-yl)pyridin-3-yl)pyrazolo[1,5-a]pyrimidine-3-carboxamide] | 6.00 to 8.00 | > 7.70 | – |
| Nc1nn2cc(F)cnc2c1C(=O)Nc1cncc(F)c1N1CCC(C(=O)N2CCN(C3COC3)CC2)CC1 [I-G-32, 2-amino-6-fluoro-N-[5-fluoro-4-[4-[4-(oxetan-3-yl)piperazine-1-carbonyl]-1-piperidyl]-3-pyridyl]pyrazolo[1,5-a]pyrimidine-3-carboxamide] | 6.00 to 8.00 | > 7.70 | – |
